# Assay results from PubChem BioAssay AID1508591.
# “And” between values parts separate entries of the source, which are not always exact repeats. Identical values can stand only once.
# Settings: rat; liver microsomes; pH 7.4; 15.0 min; 1.0 µM
row,SMILES,half-life
1,Cc1ccc(NS(=O)(=O)c2cccc(C(=O)O)c2)cc1S(=O)(=O)N1CCOCC1,> 30 min
2,CNC(=O)c1ccccc1Nc1nc(Nc2ccc(N3CCOCC3)cc2OC)ncc1Cl,> 30 min
3,Cc1cnc(-c2ccccc2OC(C)C)nc1NCc1ccc(-n2ccnn2)cc1,6.45 min
4,CN1C(=O)c2ccccc2[S@](=O)c2ccc(C(=O)NCc3cccnc3)cc21,> 30 min
5,COc1ccccc1S(=O)(=O)Nc1cnccc1C(=O)Nc1nc(-c2ccccc2)cs1,16 min
6,COc1ccc(C(=O)NC2CCCc3c2[nH]c2ccccc32)cc1OC (stereo not drawn),24.6 min
7,CN1C(=O)c2ccccc2[S@](=O)c2ccc(C(=O)NCCc3cccs3)cc21,7.2 min
8,COC(=N)c1nc2ccc3ncnc(Nc4ccc(F)cc4Br)c3c2s1,> 30 min
9,Cc1cc(C)nc(NC(=S)N2CCN(c3nccc(C(F)(F)F)n3)CC2)c1,16 min
10,O=C(Nc1ccccc1)C1CC(=O)N(c2n[nH]c3cc(Br)ccc23)C1 (stereo not drawn),> 30 min
11,Cc1ccc(C(N)=O)cc1Nc1nccc(-c2cn(C(C)C)c3cnccc23)n1,> 30 min
12,Oc1ccccc1NCC(O)Cn1ccc2ccccc21 (stereo not drawn),2.37 min
13,Cc1ccc(-c2cc(C(=O)Nc3ccc(-n4cncn4)cc3)c3ccccc3n2)cc1C,23 min
14,COc1ccccc1-n1cnc2cc(C(=O)N3CCCCC3)ccc21,3.2 min
15,COc1ccc(Nc2ncnc3c2cnn3-c2ccc(C)cc2)cc1Cl,> 30 min
16,CCN(CCCOc1ccc2c(Nc3cc(CC(=O)Nc4cccc(F)c4)[nH]n3)ncnc2c1)CCOP(=O)(O)O,> 30 min
17,CNc1oc(-c2ccc(-c3ccccc3)cc2)nc1C#N,> 30 min
18,O=C(Nc1cccc(C(F)(F)F)c1)c1ccccc1NC(=O)C1CCCCC1,25 min
19,CCc1cccc(NC(=O)CSc2nc3ccccc3nc2N2CCCCC2)c1,1.97 min
20,CCn1c(=O)cc(OCC(=O)N2CCN(c3cccc(Cl)c3)CC2)c2ccccc21,2.66 min
21,CN(C)CCNC(=O)c1nc2nc(-c3ccccc3)c(-c3cccc(Cl)c3)cc2n1C,> 30 min
22,O=C(NCCCn1ccnc1)c1ccc(-c2ncc3cnc(-c4cccc(F)c4)cn23)cc1,22.5 min
23,CC(O)(C#Cc1ccc2c(c1)N(c1nc(N)ncc1Cl)CC2)c1nccs1 (stereo not drawn),7.75 min
24,Cc1cccc(-n2cnc3cc(C(=O)N4CCC(Br)CC4)ccc32)c1,2.5 min
25,NC(=O)COc1cccc(C2CC(=O)Nc3nc(N4CCCCC4)sc32)c1 (stereo not drawn),5.1 min
26,O=C(Nc1ncnc2sc3c(c12)CCCCC3)c1ccco1,2.3 min

row,SMILES,half-life
1,COc1ccc(-c2csc(C3=C(O)CN(Cc4ccc(Cl)cc4)C3=N)n2)cc1OC,12 min
2,CC(=O)c1c(C)[nH]c(C(=O)Nc2cccc([S+](=O)([O-])N3CC[C@@H](F)C3)c2)c1C,3.2 min
3,Cc1ccc2c(c1)[nH]c1c(N3CCN(Cc4ccccc4)CC3)ncnc12,7.49 min
4,CCOc1ccccc1C(=O)NC1CCN(c2cc(C)cc(C)c2)C1=O (stereo not drawn),8.98 min
5,Cc1ccc(-n2c(=O)c3oc4ccccc4c3n(CC(=O)Nc3ccc(F)c(Cl)c3)c2=O)cc1C,29.6 min
6,COc1cccc(CNc2ccc(C(=O)Nc3nccs3)cc2)c1O,> 30 min
7,Cc1ccc(S(=O)(=O)Nc2ccc(Cl)cc2C(=O)Nc2nc(-c3ccccc3)cs2)cc1,3.4 min
8,CCOC(=O)CCNc1cc(N2CCc3ccccc3CC2)nc(-c2ccccn2)n1,1.5 min
9,Cc1ccnc(NC(=S)N2CCN(c3ncc(C(F)(F)F)cc3Cl)CC2)c1,> 30 min
10,C[C@@]1(c2ncncc2F)NC(=O)c2cc(-c3cn[nH]c3)ccc21,> 30 min
11,Cc1ccc(S(=O)(=O)Nc2cnccc2C(=O)Nc2nc(C(=O)O)cs2)cc1,> 30 min
12,O=C1c2ccccc2C2=Nc3ccccc3SC(c3ccccc3F)C12 (stereo not drawn),3.11 min
13,Cn1c(=O)c2c(-c3ccc(Cl)cc3)n(CCc3ccccc3)cc2n(C)c1=O,1.11 min
14,COc1ccc(-n2nc(C)c([C@@H]3C=C[C@@H](NCc4cccc(Cl)c4)C3)c2C)cc1,4.19 min
15,CCCCN(CC)CCCNC(=O)c1ccc2c(c1)N(Cc1ccc(C)cc1)C(=O)c1ccccc1S2,4.06 min
16,O=C(Nc1ccccc1C(=O)Nc1ccccc1C(=O)NCc1ccco1)c1ccco1,11 min
17,CC(=O)Nc1nc(-c2ccc3c(c2)CCN3C(=O)c2ccccc2C)c(C)s1,18 min
18,CC(C)(C)OC(=O)NC1CCN(c2nc(-c3ccc(Br)cc3)cs2)CC1,> 30 min
19,O=c1[nH]c(N2CCOCC2)nc2c1CCN(Cc1cc(Cl)ccc1F)CC2,> 30 min
20,O=[S+]([O-])(Nc1cccc2ccccc12)c1ccc(NCc2ccc(Cl)cc2O)cc1,5.4 min
21,Nc1c(-c2ccccc2)cnc2c(-c3ccccc3)cnn12,> 30 min
22,O=C(c1nc(-c2ccc(Cl)cc2Cl)c2cnccn12)N1CCOCC1,23.6 min
23,O=C(NCc1ccccc1)c1cn2cc(-c3ccccc3)sc2n1,24 min
24,CC[C@H]1CN(C)[C@H]2Cc3c([nH]c4ccccc34)C(=O)C[C@H]1[C@H]2C(=O)OC,11.3 min
25,COc1ccccc1C(=O)NC1CCCc2c1[nH]c1c(Cl)cccc21 (stereo not drawn),2.31 min
26,Cc1ccnc(NC(=S)N2CCN(c3cc(C(F)(F)F)cc(C(F)(F)F)c3)CC2)c1,> 30 min

row,SMILES,half-life
1,O=C(Nc1ncc(Cc2ccc(C(F)(F)F)cc2)s1)c1ccc(-c2ccccc2[N+](=O)[O-])o1,> 30 min
2,CCc1ccc(-n2c(=O)c3cccnc3n2CC(=O)Nc2cc(OC)ccc2OC)cc1,1 min
3,CCOc1ccc(CCNC(=O)c2cc3ccccc3n2Cc2ccccn2)cc1OCC,1.5 min
4,NC(=O)C1CCN(c2nccc(-c3ccc4c(c3)OCCCO4)n2)CC1,4.28 min
5,CCOc1ccc(CCNC(=O)c2cc3ccccc3n2Cc2cccc(C)n2)cc1OCC,1.6 min
6,COc1ccc(Nc2cc(C)nc(-n3nc(C)cc3C)n2)cc1Cl,17.7 min
7,COc1ccc(OC)c(-n2c3c(cc(-c4nc(-c5ccc(Cl)cc5)cs4)c2=O)C(=O)CC(C)(C)C3)c1,> 30 min
8,CC1CCCCN1c1ncnc(N)c1[N+](=O)[O-] (stereo not drawn),15 min
9,Cc1cccc(-n2cnc3cc(C(=O)N4CCCC(C(F)(F)F)C4)ccc32)c1 (stereo not drawn),1.3 min
10,Cc1ccc(-c2cc(C(=O)NCc3cnn(C)c3C)c3cc(Br)ccc3n2)cc1,12 min
11,Nc1nccc2c1ncn2[C@@H]1C=C(CO)[C@@H](O)[C@H]1O,> 30 min
12,CNC(=O)c1ccc(C)c(-n2c(C)cc(OCc3ccc(F)cc3F)c(Br)c2=O)c1,> 30 min
13,COc1c(O)cc2c(c1OC)-c1ccc(SC)c(=O)cc1C(NC(C)=O)CC2 (stereo not drawn),> 30 min
14,Fc1ccc(Nc2cc(-c3ccccc3)nc(-c3ccncc3)n2)cc1F,> 30 min
15,Cc1ccc(S(=O)(=O)Nc2cnccc2C(=O)Nc2nc(-c3cccc(C)c3)cs2)cc1,5.8 min
16,Cc1cc(-c2cc3c(nc2-c2ccccc2)nc(C(=O)NCCN(C)C)n3C)ccn1,> 30 min
17,Cc1ccccc1C(=O)N1CCc2cc(-c3csc(NC(=O)Cc4ccc5c(c4)OCO5)n3)ccc21,10.2 min
18,CCOc1ccc(Nc2nc(C)c(NC(=O)c3ccc(C)cc3)c(Nc3ccc(OCC)cc3)n2)cc1,8.86 min
19,COc1ccc(CNC(=O)CCCn2nc(C)c3c(C)n(-c4ccc(C)cc4)nc3c2=O)cc1OC,4.18 min
20,CSc1nn(Cc2cccc(C)c2)c(N)c1S(=O)(=O)c1ccccc1,1.2 min
21,CCN(CC)C(=O)c1ccc(O)c(OC)c1,> 30 min
22,FC(F)(F)c1cccc(Sc2nc(-c3ccccc3)nnc2C(F)(F)F)c1,11 min
23,Cc1ccccc1C(=O)N1CCc2cc(N3CCC(NC(=O)Cc4ccccc4)C3)ccc21 (stereo not drawn),11 min
24,CC(C)c1nc(CN(C)C(=O)N[C@H](C(=O)N[C@@H](Cc2ccccc2)C[C@H](O)[C@H](Cc2ccccc2)NC(=O)OCc2cncs2)C(C)C)cs1,22.1 min
25,Cc1ccc(OCCn2c(CCNC(=O)C3CCCCC3)nc3ccccc32)cc1,1.6 min
26,CN(C(=O)CNC(=O)c1ccccc1OCC(=O)Nc1ccc(I)cc1)c1ccccc1,1.44 min

row,SMILES,half-life
1,CS(=O)(=O)c1cccc(-c2csc(N3CCC(C(N)=O)CC3)n2)c1,> 30 min
2,C=CC(=O)Nc1cccc(Oc2nc(Nc3ccc(N4CCN(C)CC4)cc3)ncc2Cl)c1,3.06 min
3,CC(=O)NCc1ccc(-c2csc(Nc3cccc(C)c3)n2)o1,> 30 min
4,O=[S+]([O-])(Nc1ccc(C2CCNCC2)cc1)c1ccc(NCc2ccc(Cl)cc2O)cc1,> 30 min
5,CC(C)CNc1ccnc(NCc2csc(-c3ccccc3)n2)n1,2.07 min
6,Oc1ccc(Nc2nc(-c3ccncc3)nc3ccccc23)cc1F,28 min
7,COc1ccc(OCCN2CCN(C(=O)c3ccc(OC)cc3)CC2)cc1,> 30 min
8,Oc1cccc2nc3ccccc3nc12,8.9 min
9,NC(=O)C1CCN(c2ncc(-c3ccc4c(c3)OCO4)s2)CC1,7.65 min
10,CN=C1CN=C(c2ccc[nH]2)c2cc(Cl)ccc2N1,> 30 min and 23 min
11,CC(C)c1ccccc1-c1ncc(F)c(NCc2ccc(-n3ccnn3)cc2)n1,4.4 min
12,Cc1ccc(S(=O)(=O)Nc2ccccc2C(=O)Nc2ccc(-c3ccccc3)nn2)cc1,4 min
13,COc1ccccc1N1CCN(CCN(C(=O)c2ccc(F)cc2)c2ccccn2)CC1,2.02 min
14,NC(=O)C1CCN(c2nccc(-c3ccc(Br)cc3)n2)CC1,19.3 min
15,CC(C)c1cc(C(C)C)c(CC(=O)NS(=O)(=O)Oc2c(C(C)C)cccc2C(C)C)c(C(C)C)c1,28.2 min
16,COc1ccccc1C(=O)Nc1ccccc1C(=O)Nc1cccc(S(=O)(=O)C(F)(F)F)c1,> 30 min
17,CC1(COc2ccc3c(c2)ncn3-c2ccc3cccc(N4CCC(N)CC4)c3n2)COC1,> 30 min
18,COc1cc2c(cc1Oc1cccc(N(C)C)c1)NC(=O)C21CCN(c2cnccn2)CC1,1.77 min
19,Fc1ccc(Nc2nc(-c3ccncc3)ncc2-c2ccccc2)cc1F,27 min
20,C[C@@]12O[C@@H](C[C@]1(O)CO)n1c3ccccc3c3c4c(c5c6ccccc6n2c5c31)CNC4=O,> 30 min
21,O=C(NCC1Cn2cccc2CN1Cc1cccnc1)Nc1ccccc1 (stereo not drawn),1.41 min
22,Cc1cc(NS(=O)(=O)c2ccc(C(=O)NCc3ccc(Cl)c(Cl)c3)cc2)no1,> 30 min
23,O=c1c(O)c(-c2ccc(O)cc2)oc2cc(O)cc(O)c12,6.13 min
24,CCOc1ccc(CCNC(=O)c2cc3ccncc3n2Cc2cccc(C)c2)cc1OCC,7.1 min
25,O=c1cc(-c2ccc(O)c(O)c2)oc2cc(O)cc(O)c12,> 30 min
